{
  "source": "paper PMC10005185",
  "about": "“Structure-guided engineering of a receptor-agonist pair for inducible activation of the ABA adaptive response to drought” (Science Advances, 2023)",
  "key": {"[1]": {"biological_target": "T1, ΔNHAB1 with AtPYL1 (Arabidopsis thaliana, UniProt Q8VZS8)", "T1 construct": "His; made in house", "T1 sequence (Q8VZS8 whole entry, stated change not applied)": "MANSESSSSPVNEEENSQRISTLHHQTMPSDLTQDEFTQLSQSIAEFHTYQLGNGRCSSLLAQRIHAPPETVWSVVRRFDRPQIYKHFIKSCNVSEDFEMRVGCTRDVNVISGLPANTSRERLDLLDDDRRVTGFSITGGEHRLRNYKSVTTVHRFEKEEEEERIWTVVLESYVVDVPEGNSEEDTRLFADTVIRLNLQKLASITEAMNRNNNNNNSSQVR", "assay": "PP2C inhibition assay, HAB1 with AtPYL1", "format": "biochemical", "experimental": "(§1) His-tagged receptors and phosphatases were purified using nickel–nitrilotriacetic acid (Ni-NTA) affinity chromatography. Protein integrity was analyzed by SDS–polyacrylamide gel electrophoresis, followed by InstantBlue staining. Phosphatase activity was measured using p-Nitrophenyl Phosphate (pNPP) (25 mM) as substrate, 10 mM MnCl2,1 μM PP2C, and 2 μM of the indicated receptors. Proteins were incubated with the ligands for 10 min at room temperature. pNPP was then added to start the reactions, and the absorbance at 405 nm was monitored for 20 min in a ViktorX5 plate reader. Assays were repeated twice. For dose-response experiments, IC50 values were obtained with GraphPad Prism 9 using a nonlinear regression curve fit. Each ligand concentration was tested in triplicate. Phosphatase activity of ABI1 was measured using RRA(phosphoT)VA peptide as a substrate, as described ([27])."}, "[2]": {"biological_target": "T2, ΔNHAB1 with AtPYL5 (Arabidopsis thaliana, UniProt Q9FLB1)", "T2 construct": "His; made in house", "T2 sequence (Q9FLB1 whole entry, stated change not applied)": "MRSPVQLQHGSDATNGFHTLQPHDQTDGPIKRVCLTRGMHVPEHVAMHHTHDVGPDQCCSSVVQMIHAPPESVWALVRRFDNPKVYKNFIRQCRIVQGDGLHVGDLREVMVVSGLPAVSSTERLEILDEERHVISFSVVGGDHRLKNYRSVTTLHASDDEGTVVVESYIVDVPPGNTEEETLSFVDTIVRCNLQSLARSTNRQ", "assay": "PP2C inhibition assay, HAB1 with AtPYL5", "format": "biochemical", "experimental": "as §1"}, "[3]": {"biological_target": "T3, ΔNHAB1 with AtPYL10 (Arabidopsis thaliana, UniProt Q8H1R0)", "T3 construct": "His; made in house", "T3 sequence (Q8H1R0 whole entry, stated change not applied)": "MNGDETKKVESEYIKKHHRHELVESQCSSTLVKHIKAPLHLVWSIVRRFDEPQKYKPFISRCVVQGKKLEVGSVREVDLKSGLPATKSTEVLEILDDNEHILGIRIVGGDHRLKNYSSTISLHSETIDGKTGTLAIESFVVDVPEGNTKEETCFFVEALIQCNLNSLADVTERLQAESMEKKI", "assay": "PP2C inhibition assay, HAB1 with AtPYL10", "format": "biochemical", "experimental": "as §1"}, "[4]": {"test_system": "ΔNHAB1 with AtPYL10", "assay": "PP2C inhibition assay, HAB1 with AtPYL10", "format": "biochemical, Arabidopsis thaliana", "conditions": "more sensitive", "experimental": "as §1"}, "[5]": {"test_system": "AtHAB1ΔN with CsPYL1", "assay": "PP2C inhibition assay, HAB1 with CsPYL1", "format": "biochemical, Citrus sinensis (CsPYL1); Arabidopsis thaliana (HAB1)", "conditions": "fig. S1C; AtPYL5, AtPYL10 and PYL1-like receptors", "experimental": "as §1, with “Proteins were incubated with the ligands for 10 min at room temperature. pNPP was then added to start the reactions, and the absorbance at 405 nm was monitored for 20 min in a ViktorX5 plate reader.” left out"}, "[6]": {"biological_target": "AtHAB1ΔN with CsPYL1^5m (Citrus sinensis, UniProt A0A067E666, F137I/T135L/T153I/V112L/V168A)", "sequence (A0A067E666 1-209 V112L/T135L/F137I/T153I/V168A)": "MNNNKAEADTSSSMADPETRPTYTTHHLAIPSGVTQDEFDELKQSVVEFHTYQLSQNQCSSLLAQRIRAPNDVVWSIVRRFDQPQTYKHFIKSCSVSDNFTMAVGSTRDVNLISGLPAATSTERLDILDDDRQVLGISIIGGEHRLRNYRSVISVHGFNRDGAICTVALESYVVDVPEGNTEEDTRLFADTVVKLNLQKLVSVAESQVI", "sequence (Q9CAJ0 179-511 partner)": "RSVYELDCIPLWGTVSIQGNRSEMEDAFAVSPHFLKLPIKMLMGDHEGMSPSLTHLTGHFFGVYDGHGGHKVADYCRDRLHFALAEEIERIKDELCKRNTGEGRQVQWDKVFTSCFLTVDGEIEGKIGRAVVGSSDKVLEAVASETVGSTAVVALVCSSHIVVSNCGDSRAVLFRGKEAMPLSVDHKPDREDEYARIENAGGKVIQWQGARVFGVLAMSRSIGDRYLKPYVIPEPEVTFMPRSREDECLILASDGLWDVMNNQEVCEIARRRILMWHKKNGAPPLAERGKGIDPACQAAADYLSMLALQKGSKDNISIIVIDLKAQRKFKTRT", "assay": "PP2C inhibition assay, HAB1 with CsPYL1^5m", "format": "biochemical, Citrus sinensis (CsPYL1^5m); Arabidopsis thaliana (HAB1)", "conditions": "IC50 for inhibition of HAB1 (ΔNHAB1) in the presence of CsPYL1^5m, pNPP as substrate", "experimental": "as §1, with “Proteins were incubated with the ligands for 10 min at room temperature. pNPP was then added to start the reactions, and the absorbance at 405 nm was monitored for 20 min in a ViktorX5 plate reader.” left out"}, "[7]": {"test_system": "AtHAB1ΔN with CsPYL1^5m", "assay": "PP2C inhibition assay, HAB1 with CsPYL1^5m", "format": "biochemical, Citrus sinensis (CsPYL1^5m); Arabidopsis thaliana (HAB1)", "conditions": "lower for the synthetic receptor", "experimental": "as §1, with “Proteins were incubated with the ligands for 10 min at room temperature. pNPP was then added to start the reactions, and the absorbance at 405 nm was monitored for 20 min in a ViktorX5 plate reader.” left out"}, "[8]": {"test_system": "HAB1 with SlPYL1", "assay": "PP2C inhibition assay, HAB1 with SlPYL1", "format": "biochemical, Solanum lycopersicum (SlPYL1); Arabidopsis thaliana (HAB1)", "conditions": "100 μM SB", "experimental": "as §1"}, "[9]": {"test_system": "Arabidopsis thaliana seedlings (WT Col-0, overexpressing lines, receptor mutants)", "assay": "Seedling establishment assay", "format": "in vivo", "experimental": "Seedling establishment was scored as the percentage of seeds that developed green expanded cotyledons and the first pair of true leaves at 5 or 7 days. Seedling establishment assays in the presence of ABA receptor agonists were performed in 24-well plates, where approximately 25 to 35 seeds per well were sown. Each well contained a different treatment. The experiment was repeated at least twice."}, "[10]": {"test_system": "Arabidopsis thaliana seedlings", "assay": "Root growth assay", "format": "in vivo", "conditions": "for reduction of root growth: 50 μM SB", "experimental": "Seedlings were grown on vertically oriented Murashige and Skoog (MS) plates for 4 to 5 days. Afterward, seedlings were transferred to MS supplemented with the indicated concentrations of the different ligands and kept on vertical orientation. Ten days later, the plates were scanned on a flatbed scanner to produce image files suitable for quantitative analysis of root growth using the NIH Image software ImageJ. The experiment was performed in triplicate (n = 13 to 16). Statistical comparisons were performed by either pairwise t tests or one-way ANOVA using GraphPad Prism 9."}, "[11]": {"conditions": "read-out: inhibition of HAB1 phosphatase activity"}},
  "note": "Several values for one entry are separate records, joined by “and”; a condition that tells them apart may be missing. Equal entries are not always repeated.",
  "data": [
    {"smiles": "Cc1cc(=O)n(C)c2ccc(S(=O)(=O)NCc3ccccc3)cc12", "note": "[SB, N-benzyl-1,4-dimethyl-2-oxo-1,2-dihydroquinoline-6-sulfonamide]", "values": [
      {"measurement": "IC50", "setting": "[1]; Fig. 1B, read-out: IC50 for SB-dependent inhibition of ΔNHAB1 by AtPYL1", "result": "10100 ± 1990", "unit": "nM"},
      {"measurement": "IC50 of SB relative to IC50 of ABA", "setting": "[1]; PYL1, higher than ABA", "result": "circa 30 fold"},
      {"measurement": "IC50", "setting": "[2]; Fig. 1B, read-out: IC50 for SB-dependent inhibition of ΔNHAB1 by AtPYL5", "result": "877 ± 6", "unit": "nM"},
      {"measurement": "IC50 of SB relative to IC50 of ABA", "setting": "[2]; PYL5, higher than ABA", "result": "circa 30 fold"},
      {"measurement": "inhibition at 100 µM", "setting": "[2]; [11]", "result": "> 75", "unit": "%"},
      {"measurement": "IC50 of SB relative to IC50 of ABA", "setting": "[3]; AtPYL10", "result": "fourfold higher"},
      {"measurement": "IC50", "setting": "[3]; Fig. 1B, read-out: IC50 for SB-dependent inhibition of ΔNHAB1 by AtPYL10", "result": "506 ± 56", "unit": "nM"},
      {"measurement": "inhibition at 100 µM", "setting": "[3]; [11]", "result": "> 75", "unit": "%"},
      {"measurement": "sensitivity to SB of PYL10 relative to PYL1 members", "setting": "[4]", "result": 20, "unit": "fold"},
      {"measurement": "inhibition of HAB1 activity by candidate molecules of the in silico screening", "setting": "[5]", "result": "able to inhibit HAB1 activity"},
      {"measurement": "IC50", "setting": "[6]", "result": "877 nM and 876 nM"},
      {"measurement": "IC50 of SB for CsPYL1^5m relative to WT CsPYL1", "setting": "[7]", "result": 12, "unit": "fold"},
      {"measurement": "reduction of phosphatase activity", "setting": "[8]", "result": "around 50%"},
      {"measurement": "inhibition of seedling establishment", "setting": "[9]; 35S:CsPYL1^5m lines, 10 μM SB", "result": "sensitive"},
      {"measurement": "inhibition of seedling establishment", "setting": "[9]; 35S:CsPYL1 lines, even by 100 μM SB", "result": "not affected"},
      {"measurement": "dosage required to inhibit seedling establishment relative to ABA", "setting": "[9]; CsPYL1^5m lines, higher than ABA", "result": 20, "unit": "fold"},
      {"measurement": "inhibition of seedling establishment", "setting": "[9]; PYL5- and PYL10-overexpressing lines, 50 to 100 μM SB", "result": "reduced the seedling establishment"},
      {"measurement": "inhibition of seedling establishment", "setting": "[9]; WT seeds, even at 100 μM", "result": "not active"},
      {"measurement": "reduction of root growth", "setting": "[10]; PYL5- and PYL10-overexpressing lines", "result": 40, "unit": "%"},
      {"measurement": "reduction of root growth", "setting": "[10]; WT seedlings", "result": 20, "unit": "%"},
      {"measurement": "effect on root growth", "setting": "[10]; sextuple 112458 mutant", "result": "resistant"}
    ]}
  ]
}
